# Test results reported in PubChem BioAssay (NCI).
#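 Protocol summary: plate cells (96-well), add compound at 5 concentrations, incubate 48 h, interpolate endpoints linearly. Definition used: TGI = concentration required for complete inhibition of growth.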
# Legend:
# Assay in all cases: inhibition of tumour cell growth, NCI panel, 48 h
# COLO 205 colon = tested on: COLO 205 colon
# OVCAR-5 ovarian = tested on: OVCAR-5 ovarian
# MDA-MB-435 = tested on: MDA-MB-435
# SK-MEL-5 melanoma = tested on: SK-MEL-5 melanoma
# PC-3 prostate = tested on: PC-3 prostate
# HS 578T breast = tested on: HS 578T breast
# LOX IMVI melanoma = tested on: LOX IMVI melanoma
# MCF7 breast = tested on: MCF7 breast
# OVCAR-8 ovarian = tested on: OVCAR-8 ovarian
# T-47D breast = tested on: T-47D breast
# SNB-19 CNS = tested on: SNB-19 CNS
# M14 melanoma = tested on: M14 melanoma
Structure (SMILES),TGI (COLO 205 colon),TGI (OVCAR-5 ovarian),TGI (MDA-MB-435),TGI (SK-MEL-5 melanoma),TGI (PC-3 prostate),TGI (HS 578T breast),TGI (LOX IMVI melanoma),TGI (MCF7 breast),TGI (OVCAR-8 ovarian),TGI (T-47D breast),TGI (SNB-19 CNS),TGI (M14 melanoma)
O=c1c2cc([N+](=O)[O-])cnc2sn1-c1ccc(Oc2ccccc2)cc1,> 100 µM,> 100 µM,> 100 µM,> 100 µM,> 100 µM,96.5 µM,> 100 µM,> 100 µM,> 100 µM,56.6 µM,> 100 µM,> 100 µM
CC1=C(C#N)C(=O)N(/N=C/c2ccc(Cl)cc2)C(=O)/C1=c1\o/c(=C2/C(=O)N(/N=C/c3ccc(Cl)cc3)C(=O)C(C#N)=C2C)c2nccnc12,> 100 µM,> 100 µM,> 100 µM,> 100 µM,> 100 µM,> 100 µM,> 100 µM,> 100 µM,> 100 µM,> 100 µM,> 100 µM,> 100 µM
CNC(=O)C(C)NC(=O)C(Cc1ccccc1)NC(=O)OC(C)(C)C (stereo unspecified),> 100 µM,> 100 µM,> 100 µM,> 100 µM,> 100 µM,> 100 µM,> 100 µM,> 100 µM,> 100 µM,> 100 µM,> 100 µM,> 100 µM
CCC/C(Cl)=N\OC(=O)Nc1ccc(Br)cc1,7.19 µM,27.8 µM,28.7 µM,27.7 µM,28.4 µM,66.6 µM,10.6 µM,19.7 µM,28.9 µM,25.2 µM,> 59.7 µM,25.2 µM
CC(=O)NNc1nc(C)c(C(/C=C/c2ccccc2O)=N/NC(=O)c2ccncc2)s1,> 100 µM,> 100 µM,> 100 µM,> 100 µM,> 100 µM,> 100 µM,> 100 µM,> 100 µM,> 100 µM,> 100 µM,> 100 µM,> 100 µM
C=C1[C@H](OCC(C)C)[C@@H](OCC(C)C)[C@@H](O)C(C)(C)/C=C/[C@H](C)C(=O)[C@@]2(O)C[C@H](C)[C@H](O)[C@@H]2[C@H]1OCC(C)C,> 7.5 µM,> 7.5 µM,> 7.5 µM,> 7.5 µM,> 7.5 µM,> 7.5 µM,> 7.5 µM,> 7.5 µM,> 7.5 µM,> 7.5 µM,> 7.5 µM,> 7.5 µM
c1ccc2c(OCC3CO3)ccc(OCC3CO3)c2c1 (stereo unspecified),23 µM,23.3 µM,7.74 µM,19 µM,17.1 µM,9.73 µM,2.08 µM,4.66 µM,10.4 µM,15.4 µM,21 µM,13.3 µM
CC(C)[Si](OCC/C=C/C1CCC(=O)C1C(O)C1CCCCC1)(C(C)C)C(C)C (stereo unspecified),35.5 µM,33.4 µM,34.5 µM,29 µM,31.5 µM,36.5 µM,32.7 µM,34.2 µM,28.8 µM,33.7 µM,32.6 µM,37.8 µM
Cc1ccc(S(=O)(=O)Oc2coc(CO)cc2=O)cc1,28.6 µM,31.8 µM,30.7 µM,33.7 µM,38.2 µM,> 72.7 µM,14.9 µM,22.1 µM,> 50 µM,30 µM,27.8 µM,25.9 µM
COc1ccc2c(c1)-c1c(c3ccccc3n1CCN1CCCCC1)CC2,29.9 µM,> 57.2 µM,73.2 µM,30.1 µM,> 87.7 µM,> 65.7 µM,33.3 µM,> 80.8 µM,> 55.3 µM,> 94.4 µM,66.4 µM,> 55.8 µM
COc1c(C(CC(C)C)OC(C)=O)ccc2c1C(=O)OCc1cc(C)cc(O)c1O2 (stereo unspecified),31.8 µM,28.4 µM,26.6 µM,23.2 µM,21.6 µM,50.4 µM,27.8 µM,25.6 µM,33.1 µM,23.6 µM,28.7 µM,31.3 µM
CCC1=NC(N/N=C/c2ccccc2O)=N/C1=C\c1ccccc1O,> 74.8 µM,> 100 µM,> 81.2 µM,> 100 µM,> 100 µM,> 83.7 µM,> 42.9 µM,> 76.1 µM,> 69.2 µM,> 76.5 µM,> 100 µM,51.9 µM
CC1=C/C(=N\N(C)C)C(C(O)(C(F)(F)F)C(F)(F)F)C(C)(C)C1 (stereo unspecified),> 100 µM,> 100 µM,> 100 µM,> 100 µM,> 100 µM,> 100 µM,> 100 µM,> 100 µM,> 100 µM,> 100 µM,> 100 µM,> 100 µM
COC(=O)C(Cc1ccccc1)C(=O)NC(CNC(=O)OCc1ccccc1)C(=O)OCc1ccccc1 (stereo unspecified),37.7 µM,> 100 µM,50 µM,34 µM,> 100 µM,> 100 µM,36 µM,> 100 µM,> 100 µM,> 100 µM,> 100 µM,30.4 µM
COc1ccc2cc(CNCCCN3CCN(CCCNCc4ccc5cc(OC)ccc5c4)CC3)ccc2c1,2.83 µM,2.6 µM,2.99 µM,3.05 µM,2.36 µM,3.32 µM,1.48 µM,2.85 µM,3.21 µM,3.19 µM,3.18 µM,3.01 µM
CC1(C)C[C@H]2C3=CC[C@@H]4[C@@]5(C)CC[C@H](O)C(C)(C)[C@@H]5CC[C@@]4(C)[C@]3(C)C[C@@H](O)[C@@]23C[C@@H]1OC3=O,> 100 µM,> 100 µM,> 100 µM,> 100 µM,> 100 µM,> 100 µM,> 100 µM,> 100 µM,> 100 µM,> 100 µM,> 100 µM,> 100 µM
O=C(n1[nH]c(=O)n(-c2ccc([N+](=O)[O-])cc2)c1=O)C(Cl)(Cl)Cl,> 75 µM,> 75 µM,> 75 µM,> 75 µM,> 75 µM,> 75 µM,> 75 µM,> 75 µM,> 75 µM,> 75 µM,> 75 µM,> 75 µM
O=C(O)c1ccccc1C(=O)OCC1CCCN2CCCCC12 (stereo unspecified),> 100 µM,> 100 µM,> 100 µM,> 100 µM,> 100 µM,> 100 µM,> 100 µM,> 100 µM,> 100 µM,> 100 µM,> 100 µM,> 100 µM
c1ccc2c(c1)n1c(N3CCOCC3)[n+]3ccccc3c1c1c3cccc[n+]3c(N3CCOCC3)n21,> 100 µM,> 100 µM,> 100 µM,> 100 µM,> 100 µM,> 100 µM,> 100 µM,> 100 µM,> 100 µM,> 100 µM,> 100 µM,> 100 µM
CCOC(=O)C1C(C(C)C)C2(C#N)C(=N)OC1(C)C2(C#N)C#N (stereo unspecified),82.1 µM,> 100 µM,> 100 µM,> 100 µM,> 100 µM,> 100 µM,> 100 µM,> 100 µM,> 100 µM,> 100 µM,> 100 µM,> 100 µM
CCN(CC)CCN1CCN=c2c3cc(OC)ccc3n3cnc4ccc1c2c43,2.6 µM,5.77 µM,1.92 µM,3.27 µM,1.63 µM,4.71 µM,1.07 µM,0.847 µM,2.26 µM,23.3 µM,3.04 µM,2.85 µM
COCC1OCCN1C (stereo unspecified),> 100 µM,> 100 µM,> 100 µM,> 100 µM,> 100 µM,> 100 µM,> 100 µM,> 100 µM,> 100 µM,> 100 µM,> 100 µM,> 100 µM
O=c1[nH]c2nccn2c(Cl)c1Br,34.4 µM,49.1 µM,42 µM,64.9 µM,> 100 µM,66 µM,34.4 µM,> 100 µM,39.3 µM,67.8 µM,70.5 µM,34.5 µM
